A word on the pest or weed control: it is how far the test organism was held down. A low value points to weak suppression.

Structures are written as SMILES.

Data on 13 molecules can be found in patent US8828908B2, “Herbicidally active bicyclic 1,3-dione compounds” (Syngenta Limited, priority 2007, dated 2014).

Common to all, as to format: in vivo
In assay [1] the test system is Alopecurus myosuroides (ALOMY). Kind of assay: Example A pre-emergence herbicidal glasshouse test. The note with it: 312 h, Rate 250 g/ha, evaluated after 13 days, 100=total damage to plant, 0=no damage to plant. How it is done:
(§1) Seeds of a variety of test species were sown in standard soil in pots. After cultivation for one day (pre-emergence) or after 8 days cultivation (post-emergence) under controlled conditions in a glasshouse (at 24/16° C., day/night; 14 hours light; 65% humidity), the plants were sprayed with an aqueous spray solution derived from the formulation of the technical active ingredient in acetone/water (50:50) solution containing 0.5% Tween 20 (polyoxyethelyene sorbitan monolaurate, CAS RN 9005-64-5). The test plants were then grown in a glasshouse under controlled conditions in a glasshouse (at 24/16° C., day/night; 14 hours light; 65% humidity) and watered twice daily. After 13 days for pre and post-emergence, the test was evaluated (100=total damage to plant; 0=no damage to plant).
(§2) Alopecurus myosuroides (ALOMY), Avena fatua (AVEFA), Setaria faberi (SETFA), Echinochloa crus-galli (ECHCG), Solanum nigrum (SOLNI) and Amaranthus retroflexus (AMARE)

Assay [2] concerns Amaranthus retroflexus (AMARE). Kind of assay: Example A pre-emergence herbicidal glasshouse test. The note with it: 312 h, Rate 250 g/ha, evaluated after 13 days, 100=total damage to plant, 0=no damage to plant. How it is done: as §1, §2
For assay [3], the system named is Echinochloa crus-galli (ECHCG). Kind of assay: Example A pre-emergence herbicidal glasshouse test. The conditions noted are these: 312 h, Rate 250 g/ha, evaluated after 13 days, 100=total damage to plant, 0=no damage to plant. As to the method:
as §1, §2

The subject of assay [4] is Avena fatua (AVEFA). Kind of assay: Example A pre-emergence herbicidal glasshouse test. The note with it: 312 h, Rate 250 g/ha, evaluated after 13 days, 100=total damage to plant, 0=no damage to plant. How it is done:
as §1, §2

For assay [5], the system named is Setaria faberi (SETFA). Kind of assay: Example A pre-emergence herbicidal glasshouse test. The note with it: 312 h, Rate 250 g/ha, evaluated after 13 days, 100=total damage to plant, 0=no damage to plant. How it is done: as §1, §2
Assay [6] relates to Alopecurus myosuroides (ALOMY). Kind of assay: Example A post-emergence herbicidal glasshouse test. The conditions noted are these: 312 h, evaluated after 13 days, 100=total damage to plant, 0=no damage. How it is done:
as §1, §2

Assay [7] relates to Amaranthus retroflexus (AMARE). The assay is described as above. The conditions noted are these: 312 h, evaluated after 13 days, 100=total damage to plant, 0=no damage. How it is done:
as §1, §2

For assay [8], the system named is Echinochloa crus-galli (ECHCG). Described as above. The note with it: 312 h, evaluated after 13 days, 100=total damage to plant, 0=no damage. How it is done: as §1, §2
Assay [9] concerns Avena fatua (AVEFA). Described as above. The conditions noted are these: 312 h, evaluated after 13 days, 100=total damage to plant, 0=no damage. As to the method: as §1, §2
In assay [10] the test system is Setaria faberi (SETFA). Described as above. The conditions noted are these: 312 h, evaluated after 13 days, 100=total damage to plant, 0=no damage. As to the method: as §1, §2

Take `Cc1ccc(-c2ccc(F)c(F)c2)cc1C1=C(O)[C@H]2CC[C@H](C2)C1=O` (single isomer, unassigned) [Compound T9]: the pest or weed control at 250 g/ha was 0% in [1]; 0% in assay [2]; 0% in [3]; 0% in the assay with Avena fatua (AVEFA) [4]; 50% in the assay on Setaria faberi (SETFA) [5]; 10% in assay [6]. For the same molecule, the pest or weed control at 250 g/ha in [7] came out at 0%; in assay [8], 70%; with Avena fatua (AVEFA) [9], 40%; in the assay with Setaria faberi (SETFA) [10], 80%.
With `Cc1ccc(-c2ccccc2C)cc1C1=C(O)[C@H]2CC[C@H](C2)C1=O` (single isomer, unassigned) [Compound T18], the pest or weed control at 250 g/ha (in assay [1]; in assay [2]; in assay [3]; in the assay with Avena fatua (AVEFA) [4]; in the assay with Setaria faberi (SETFA) [5]; in [6]) was 0% in each case. In addition, the pest or weed control at 250 g/ha (in assay [7]; in assay [8]; with Avena fatua (AVEFA) [9]; in the assay with Setaria faberi (SETFA) [10]) was 0% in each case.
Regarding `Cc1cccc(-c2ccc(C)c(C3=C(O)[C@H]4CC[C@H](C4)C3=O)c2)c1` (single isomer, unassigned) [Compound T19], the pest or weed control at 250 g/ha (in [1]; in assay [2]; in assay [3]; in the assay on Avena fatua (AVEFA) [4]; with Setaria faberi (SETFA) [5]; in assay [6]) was 0% each time. Further, the pest or weed control at 250 g/ha worked out at 20% in assay [7], 40% in assay [8], 0% in the assay with Avena fatua (AVEFA) [9] and 50% in the assay on Setaria faberi (SETFA) [10].
In the case of `Cc1ccc(-c2ccc(C)c(C3=C(O)[C@H]4CC[C@H](C4)C3=O)c2)cc1` (single isomer, unassigned) [Compound T20], the pest or weed control at 250 g/ha worked out at 10% in assay [1]; 0% in assay [2]; 40% in [3]; 0% with Avena fatua (AVEFA) [4]; 0% with Setaria faberi (SETFA) [5]; 20% in assay [6]. In addition, the pest or weed control at 250 g/ha in assay [7] stood at 0%; in [8], 60%; in the assay with Avena fatua (AVEFA) [9], 0%; in the assay with Setaria faberi (SETFA) [10], 50%.
Turning to `Cc1ccc(-c2ccccc2C(F)(F)F)cc1C1=C(O)[C@H]2CC[C@H](C2)C1=O` (single isomer, unassigned) [Compound T21], the pest or weed control at 250 g/ha (in assay [1]; in assay [2]; in assay [3]; in the assay on Avena fatua (AVEFA) [4]; with Setaria faberi (SETFA) [5]; in [6]) was 0% throughout. Besides, the pest or weed control at 250 g/ha is 0% in [7], 0% in assay [8], 0% in the assay with Avena fatua (AVEFA) [9] and 20% in the assay on Setaria faberi (SETFA) [10].
`Cc1ccc(-c2cccc(C(F)(F)F)c2)cc1C1=C(O)[C@H]2CC[C@H](C2)C1=O` (single isomer, unassigned) [Compound T22]: the pest or weed control at 250 g/ha in [1] stood at 0%; in assay [2] it was 0%; in assay [3], 20%; in the assay on Avena fatua (AVEFA) [4], 0%; with Setaria faberi (SETFA) [5] it was 10%; in assay [6], 0%. For the same molecule, the pest or weed control at 250 g/ha was determined as 0% in [7], 20% in [8], 0% with Avena fatua (AVEFA) [9] and 50% in the assay on Setaria faberi (SETFA) [10].
On to `Cc1ccc(-c2ccc(C(F)(F)F)cc2)cc1C1=C(O)[C@H]2CC[C@H](C2)C1=O` (single isomer, unassigned) [Compound T23], for which the pest or weed control at 250 g/ha is 50% in [1]; 0% in assay [2]; 90% in [3]; 0% in the assay with Avena fatua (AVEFA) [4]; 100% in the assay with Setaria faberi (SETFA) [5]; 60% in assay [6]. Further, the pest or weed control at 250 g/ha in assay [7] was found to be 0%; in assay [8], 90%; in the assay on Avena fatua (AVEFA) [9], 60%; in the assay on Setaria faberi (SETFA) [10] it was 100%.
Take `CCc1ccc(-c2cccc(Cl)c2)cc1C1=C(O)[C@H]2CC[C@H](C2)C1=O` (single isomer, unassigned) [Compound T38]: the pest or weed control at 250 g/ha was 0% in [1]; 0% in [2]; 60% in assay [3]; 0% in the assay with Avena fatua (AVEFA) [4]; 0% in the assay on Setaria faberi (SETFA) [5]; 20% in [6]. The pest or weed control at 250 g/ha in assay [7] stood at 0%; in [8], 70%; in the assay with Avena fatua (AVEFA) [9] it was 0%; in the assay on Setaria faberi (SETFA) [10], 40%.
For the molecule `CCc1ccc(-c2cc(Cl)ccc2OC)cc1C1=C(O)[C@H]2CC[C@H](C2)C1=O` (single isomer, unassigned) [Compound T40], the pest or weed control at 250 g/ha (in [1]; in [2]; in [3]; with Avena fatua (AVEFA) [4]; in the assay with Setaria faberi (SETFA) [5]; in [6]) was 0% throughout. Moreover, the pest or weed control at 250 g/ha (in assay [7]; in [8]; with Avena fatua (AVEFA) [9]; in the assay with Setaria faberi (SETFA) [10]) was 0% in each case.
As to `Cc1ccc(-c2ccc(Cl)cc2C(F)(F)F)cc1C1=C(O)[C@H]2CC[C@H](C2)C1=O` (single isomer, unassigned) [Compound T42], the pest or weed control at 250 g/ha (in assay [1]; in assay [2]; in [3]; in the assay with Avena fatua (AVEFA) [4]; in the assay on Setaria faberi (SETFA) [5]; in [6]) was 0% each time. The pest or weed control at 250 g/ha (in [7]; in assay [8]; with Avena fatua (AVEFA) [9]; in the assay with Setaria faberi (SETFA) [10]) was 0% throughout.
Turning to `CCc1ccc(-c2ccc(Cl)cc2C(F)(F)F)cc1C1=C(O)[C@H]2CC[C@H](C2)C1=O` (single isomer, unassigned) [Compound T45], the pest or weed control at 250 g/ha stood at 0% in [1]; 0% in assay [2]; 0% in assay [3]; 0% with Avena fatua (AVEFA) [4]; 0% with Setaria faberi (SETFA) [5]; 30% in [6]. Moreover, the pest or weed control at 250 g/ha in [7] is 0%; in assay [8] it was 60%; with Avena fatua (AVEFA) [9], 0%; with Setaria faberi (SETFA) [10], 70%.
`Cc1ccc(-c2cccc(Cl)c2F)cc1C1=C(O)[C@H]2CC[C@H](C2)C1=O` (single isomer, unassigned) [Compound T46]: the pest or weed control at 250 g/ha (in [1]; in assay [2]; in assay [3]; in the assay with Avena fatua (AVEFA) [4]; in the assay on Setaria faberi (SETFA) [5]; in assay [6]) was 0% each time. For the same molecule, the pest or weed control at 250 g/ha (in assay [7]; in [8]; in the assay with Avena fatua (AVEFA) [9]; with Setaria faberi (SETFA) [10]) was 0% in each case.
Turning to `Cc1ccc(-c2cc(F)cc(Cl)c2)cc1C1=C(O)[C@H]2CC[C@H](C2)C1=O` (single isomer, unassigned) [Compound T47], the pest or weed control at 250 g/ha (in assay [1]; in assay [2]; in assay [3]; with Avena fatua (AVEFA) [4]; in the assay with Setaria faberi (SETFA) [5]; in assay [6]) was 0% each time. The pest or weed control at 250 g/ha in [7] amounted to 0%; in assay [8], 30%; in the assay on Avena fatua (AVEFA) [9], 0%; in the assay with Setaria faberi (SETFA) [10] it was 0%.
